System: MCF-7 cells (breast adenocarcinoma)
Assay: cells
Type: cell-based
Conditions: Homo sapiens, MCF7; MTT, 72 h, 0.01–50 µM, dark conditions
Method: The cytotoxic effects of the aminosquaraines 1–8 were evaluated in breast (MCF-7 and T47D) and prostate (LNCaP) cancer cell lines using the MTT assay, as previously described [17]. […] Normal human dermal fibroblasts (NHDF) were included as a non-cancer model to assess tumor selectivity.
In a preliminary screening, cells were exposed to a single concentration (30 µM) of each dye for 72 h to assess metabolic activity.
The studied compounds were dissolved in dimethyl sulfoxide to prepare 10 mM stock solutions and stored at 4 °C. Working solutions were prepared from these stocks at the desired concentrations (30 µM for preliminary studies and 0.01, 0.1, 1, 10, 25, and 50 µM for concentration–response studies) by dilution in complete culture medium immediately before each experiment.
Metabolic activity was assessed by quantifying the reduction of 3-(4,5-dimethylthiazol-2-yl)-2,5-diphenyltetrazolium bromide (MTT), according to a previously described procedure [17]. […] Absorbance was recorded at 570 nm using an xMark™ microplate reader (Bio-Rad, Hercules, CA, USA) using Microplate Manager 6.3 software. Cell viability was calculated as a percentage relative to untreated control cells.
Selectivity indices were determined as the ratio between IC50 values obtained in the NHDF cell line and those obtained in the corresponding tumor cell lines.

**Q.** For `O=c1[nH]cc(F)c(=O)[nH]1` [5-FU, 5-fluorouracil], which IC50 is on record?
**A.** 1710 nM

Reference: paper PMC13165350, “In Vitro Antiproliferative Effects of Benzothiazole-Based Aminosquaraine Dyes Against Cancer Cell Lines” (Molecules, 2026)
